Laboratory results taken from patent US12617814B2, “Neuroactive steroids and methods of use thereof” (Sage Therapeutics, LLC, priority 2013, dated 2026).

Biological target: NMDA receptor (GRIN1/GRIN2A) (Homo sapiens, UniProt Q05586+Q12879)
Experiment: NMDA potentiation, two electrode voltage clamp (TEVC) of Xenopus oocytes expressing NMDA receptor
Assay type: cell-based
Details: 10 μM compound, 3 μM Glutamate and Glycine
Experimental: NMDA potentiation was assessed using either whole cell patch clamp of mammalian cells which expressed NMDA receptors, or using two-electrode voltage clamp (TEVC) of Xenopus Laevis oocytes expressing NMDA receptors.
The Two Electrode Voltage Clamp (TEVC) technique was used to investigate the effects of compounds (10 μM) on the NMDA receptor (GRIN1/GRIN2A) expressed in Xenopus oocytes. Glutamate/Glycine peak and steady-state currents were recorded from oocytes that expressed the NMDA receptor and the modulatory effects of the test items on these currents were investigated.
Ovaries were harvested from Xenopus Laevis females that had been deeply anesthetized by cooling at 4° C. and immersion in Tricaine methanesulfonate (MS-222 at a concentration of 150 mg/L) in sodium bicarbonate (300 mg/L). Once anesthetized the animal was decapitated and pithed following the rules of animal rights from the Geneva canton. A small piece of ovary was isolated for immediate preparation while the remaining part was placed at 4° C. in a sterile Barth solution containing in mM NaCl 88, KCl 1, NaHCO3 2.4, HEPES 10, MgSO4·7H2O 0.82, Ca(NO3)2·4H2O 0.33, CaCl2·6H2O 0.41, at pH 7.4, and supplemented with 20 μg/ml of kanamycin, 100 unit/ml penicillin and 100 μg/ml streptomycin. All recordings were performed at 18° C. and cells were super-fused with medium containing in mM: NaCl 82.5, KCl 2.5, HEPES 5, CaCl2·2H2O, ·6H2O 1, pH 7.4.
Oocytes were injected with either cDNAs encoding for the human GRIN1 and GRIN2A subunits, using a proprietary automated injection device (Hogg et al., J. Neurosci. Methods, (2008) 169: 65-75) and receptor expression was assessed using electrophysiology at least two days later. The ratio of cDNA injection for GRIN1 and GRIN2A was 1:1. Electrophysiological recordings were made using an automated process equipped with standard TEVC and data were captured and analyzed using a proprietary data acquisition and analysis software running under Matlab (Mathworks Inc.). The membrane potential of the oocytes was maintained at −80 mV throughout the experiments. To explore the effects of proprietary compounds, currents were evoked by applying 3 μM Glutamate and […] Glycine for 10 s. Oocytes were then washed for 90 s before being exposed to the test article at a concentration of 10 μM for 120 s. Following this, 3 μM Glutamate and […] Glycine were immediately reapplied for 10 s. Potentiation of both the peak current and the steady state current was assessed. For statistical analysis values were computed either with Excel (Microsoft) or Matlab (Mathworks Inc.). To obtain mean measurements with standard deviations, all experiments were carried out using at least three cells.
Glutamate was prepared as a concentrated stock solution ([…]) in water and then diluted in the recording medium to obtain the desired test concentration. Glycine was prepared as a stock solution at 1 M in water. Compounds were prepared as stock solution ([…]) in DMSO and then diluted in the recording medium to obtain the desired test concentration.

Chain of NMDA receptor (GRIN1/GRIN2A) (Q12879 23-1464, other chains not shown): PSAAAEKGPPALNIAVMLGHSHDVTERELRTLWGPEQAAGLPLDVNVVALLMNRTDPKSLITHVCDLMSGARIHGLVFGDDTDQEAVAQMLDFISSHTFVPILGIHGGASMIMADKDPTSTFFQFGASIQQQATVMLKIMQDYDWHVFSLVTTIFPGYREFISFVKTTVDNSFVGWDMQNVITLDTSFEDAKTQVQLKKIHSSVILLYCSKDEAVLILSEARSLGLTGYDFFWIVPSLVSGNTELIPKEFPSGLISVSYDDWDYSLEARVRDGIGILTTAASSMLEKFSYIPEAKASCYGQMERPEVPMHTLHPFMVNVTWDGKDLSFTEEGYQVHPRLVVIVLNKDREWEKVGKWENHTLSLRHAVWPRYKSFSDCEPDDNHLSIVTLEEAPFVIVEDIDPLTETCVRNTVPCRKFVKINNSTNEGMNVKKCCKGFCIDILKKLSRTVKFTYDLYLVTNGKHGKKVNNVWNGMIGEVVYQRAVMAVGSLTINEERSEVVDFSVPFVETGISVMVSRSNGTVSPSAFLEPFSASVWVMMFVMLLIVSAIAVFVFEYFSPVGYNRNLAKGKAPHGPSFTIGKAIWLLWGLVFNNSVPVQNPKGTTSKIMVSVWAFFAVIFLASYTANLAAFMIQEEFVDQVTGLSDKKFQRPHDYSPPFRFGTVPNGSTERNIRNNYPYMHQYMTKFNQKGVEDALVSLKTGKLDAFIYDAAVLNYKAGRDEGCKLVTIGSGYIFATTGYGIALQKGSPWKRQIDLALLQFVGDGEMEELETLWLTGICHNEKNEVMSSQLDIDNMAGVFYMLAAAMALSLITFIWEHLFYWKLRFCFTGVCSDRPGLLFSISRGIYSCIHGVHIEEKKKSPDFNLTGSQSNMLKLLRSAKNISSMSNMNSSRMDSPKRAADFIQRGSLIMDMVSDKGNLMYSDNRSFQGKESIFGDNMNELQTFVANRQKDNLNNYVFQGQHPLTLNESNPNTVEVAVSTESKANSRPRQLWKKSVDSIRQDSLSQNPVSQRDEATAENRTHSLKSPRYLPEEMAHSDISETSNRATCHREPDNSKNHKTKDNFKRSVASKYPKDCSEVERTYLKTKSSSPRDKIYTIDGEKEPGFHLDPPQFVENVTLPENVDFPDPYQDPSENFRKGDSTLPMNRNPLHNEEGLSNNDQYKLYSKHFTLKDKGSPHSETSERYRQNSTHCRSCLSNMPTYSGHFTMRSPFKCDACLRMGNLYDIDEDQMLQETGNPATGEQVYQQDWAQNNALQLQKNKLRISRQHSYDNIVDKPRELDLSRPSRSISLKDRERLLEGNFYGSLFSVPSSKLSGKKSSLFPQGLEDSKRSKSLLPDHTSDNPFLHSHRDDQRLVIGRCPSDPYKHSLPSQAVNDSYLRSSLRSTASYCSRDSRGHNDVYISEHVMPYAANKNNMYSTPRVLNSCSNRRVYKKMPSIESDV

Compound | activation at 10 µM
CC[C@](C)(O)CC[C@@H](C)[C@H]1CC[C@H]2[C@@H]3CC[C@H]4C[C@@](C)(O)CC[C@]4(C)[C@H]3CC[C@]12C [Compound 4-10] | 10 to 50%
C[C@H](CC[C@@](C)(O)CCO)[C@H]1CC[C@H]2[C@@H]3CC[C@H]4C[C@@](C)(O)CC[C@]4(C)[C@H]3CC[C@]12C [Compound 10-16] | 10 to 50%
C=CCC(C)(O)CC[C@@H](C)[C@H]1CC[C@H]2[C@@H]3CC[C@H]4C[C@@](C)(O)CC[C@]4(C)[C@H]3CC[C@]12C (stereo partly shown) [Compound 6-6] | 50 to 100%
CC[C@]1(O)CC[C@@]2(C)C(=CC[C@H]3[C@@H]4CC[C@H]([C@H](C)CCC(O)C(F)(F)F)[C@@]4(C)CC[C@@H]32)C1 (stereo partly shown) [Compound 2-4] | > 100%
C=C[C@@](C)(O)CC[C@@H](C)[C@H]1CC[C@H]2[C@@H]3CC=C4C[C@@](C)(O)CC[C@]4(C)[C@H]3CC[C@]12C [Compound 10-12B] | 10 to 50%
COCC[C@](C)(O)CC[C@@H](C)[C@H]1CC[C@H]2[C@@H]3CC=C4C[C@@](C)(O)CC[C@]4(C)[C@H]3CC[C@]12C [Compound 10-22] | 50 to 100%
CC(C)[C@@](C)(O)CC[C@@H](C)[C@H]1CC[C@H]2[C@@H]3CC=C4C[C@@](C)(O)CC[C@]4(C)[C@H]3CC[C@]12C [Compound 8-7] | 50 to 100%
CCCC[C@@](C)(O)CC[C@@H](C)[C@H]1CC[C@H]2[C@@H]3CC=C4C[C@@](C)(O)CC[C@]4(C)[C@H]3CC[C@]12C [Compound 7-5] | 10 to 50%
C=C[C@](C)(O)CC[C@@H](C)[C@H]1CC[C@H]2[C@@H]3CC=C4C[C@@](C)(O)CC[C@]4(C)[C@H]3CC[C@]12C [Compound 10-12A] | 10 to 50%
C[C@H](CC[C@@](C)(O)C1CC1)[C@H]1CC[C@H]2[C@@H]3CC[C@H]4C[C@@](C)(O)CC[C@]4(C)[C@H]3CC[C@]12C [Compound 9-7] | 10 to 50%
C[C@H](CC[C@@](C)(O)CCCO)[C@H]1CC[C@H]2[C@@H]3CC=C4C[C@@](C)(O)CC[C@]4(C)[C@H]3CC[C@]12C [Compound 6-9] | 10 to 50%
C[C@H](CCC(C)(O)C1CC1)[C@H]1CC[C@H]2[C@@H]3CC[C@H]4C[C@@](C)(O)CC[C@]4(C)[C@H]3CC[C@]12C (stereo partly shown) [Compound 9-6] | 50 to 100%
C=CC[C@@](C)(O)CC[C@@H](C)[C@H]1CC[C@H]2[C@@H]3CC=C4C[C@@](C)(O)CC[C@]4(C)[C@H]3CC[C@]12C [Compound 6-8] | 10 to 50%
CC[C@]1(O)CC[C@@]2(C)[C@@H](CC[C@@H]3[C@@H]2CC[C@]2(C)[C@@H]([C@H](C)CCC(O)C(F)(F)F)CC[C@@H]32)C1 (stereo partly shown) [Compound 2-5] | 50 to 100%
C[C@H](CC[C@](C)(O)C(F)(F)F)[C@H]1CC[C@H]2[C@@H]3CC=C4C[C@@](C)(O)CC[C@]4(C)[C@H]3CC[C@]12C [Compound 3-5] | 10 to 50%
COCCC(C)(O)CC[C@@H](C)[C@H]1CC[C@H]2[C@@H]3CC=C4C[C@@](C)(O)CC[C@]4(C)[C@H]3CC[C@]12C (stereo partly shown) [Compound 10-14] | 50 to 100%
CCCC[C@@](C)(O)CC[C@@H](C)[C@H]1CC[C@H]2[C@@H]3CC[C@H]4C[C@@](C)(O)CC[C@]4(C)[C@H]3CC[C@]12C [Compound 7-7] | 10 to 50%
C[C@H](CC[C@](C)(O)C1CC1)[C@H]1CC[C@H]2[C@@H]3CC=C4C[C@@](C)(O)CC[C@]4(C)[C@H]3CC[C@]12C [Compound 9-4] | 50 to 100%
CCC[C@@](C)(O)CC[C@@H](C)[C@H]1CC[C@H]2[C@@H]3CC=C4C[C@@](C)(O)CC[C@]4(C)[C@H]3CC[C@]12C [Compound 5-6] | 10 to 50%
